Several values for one entry are separate records, joined by “and”; a condition that tells them apart may be missing. Identical values can stand only once. Toxic doses and inconclusive results are not listed.
Tested on: P388 leukemia ip, CD2F1 mice, survival T/C
Assay: NCI In Vivo Anticancer Drug Screen. Data for tumor model P388 Leukemia (intraperitoneal) in CD2F1 (CDF1) mice
Conditions: endpoint: median survival time, higher = longer survival
Method in brief: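 Mice carrying the transplanted tumor received test compound or vehicle. Survival was recorded in each group, and the value is the treated-group measurement divided by that of the vehicle-treated control group.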

[1] = dose: 100.0 mg/kg/injection, schedule: Q01DX001 (ip), vehicle: saline with Tween-80
[2] = dose: 200.0 mg/kg/injection, schedule: Q01DX001 (ip), vehicle: saline with Tween-80
[3] = dose: 60.0 mg/kg/injection, schedule: Q01DX005 (ip), vehicle: Klucel (hydroxypropylcellulose) (HPC)
[4] = dose: 120.0 mg/kg/injection, schedule: Q01DX005 (ip), vehicle: Klucel (hydroxypropylcellulose) (HPC)
[5] = dose: 240.0 mg/kg/injection, schedule: Q01DX005 (ip), vehicle: Klucel (hydroxypropylcellulose) (HPC)
[6] = dose: 50.0 mg/kg/injection, schedule: Q01DX009 (ip), vehicle: saline with Tween-80
[7] = dose: 50.0 mg/kg/injection, schedule: Q01DX005 (ip), vehicle: saline with Tween-80
[8] = dose: 100.0 mg/kg/injection, schedule: Q01DX005 (ip), vehicle: saline with Tween-80
[9] = dose: 400.0 mg/kg/injection, schedule: Q01DX001 (ip), vehicle: saline with Tween-80

In the case of `Clc1ccc(-c2nnc3ncccn23)cc1`, the T/C [1] is reported as 96 % of control and the T/C [2] is reported as 105 % of control.
In the case of `CCOc1nc(N)nc(C)c1N=Nc1cccc([N+](=O)[O-])c1`, the T/C [3] is reported as 100 % of control, the T/C [4] is reported as 94 % of control and the T/C [5] is reported as 103 % of control.
In the case of `OCCCCC/C=C/CCCCCCC1C=CCC1` (stereo unspecified), the T/C (dose: 100.0 mg/kg/injection, schedule: Q01DX001 (ip), vehicle: saline) is reported as 99 % of control, the T/C (dose: 200.0 mg/kg/injection, schedule: Q01DX001 (ip), vehicle: saline) is reported as 99 % of control and the T/C (dose: 400.0 mg/kg/injection, schedule: Q01DX001 (ip), vehicle: saline) is reported as 99 % of control.
In the case of `CC1=CC2OC3C(OC(=O)CCCCl)C(OC(=O)CCCCl)C(C)(C2(CO)CC1)C31CO1` (stereo unspecified), the T/C (dose: 4.0 mg/kg/injection, schedule: Q01DX009 (ip), vehicle: saline with Tween-80) is reported as 152 % of control and the T/C (dose: 8.0 mg/kg/injection, schedule: Q01DX009 (ip), vehicle: saline with Tween-80) is reported as 172 % of control.
For `COc1cc(/C=N/NC(=O)CN(C)C)cc(OC)c1N(CCCl)CCCl`, the T/C (dose: 6.25 mg/kg/injection, schedule: Q01DX009 (ip), vehicle: Klucel (hydroxypropylcellulose) (HPC)) was 116 % of control, the T/C (dose: 25.0 mg/kg/injection, schedule: Q01DX009 (ip), vehicle: Klucel (hydroxypropylcellulose) (HPC)) was 152 % of control and the T/C (dose: 50.0 mg/kg/injection, schedule: Q01DX009 (ip), vehicle: Klucel (hydroxypropylcellulose) (HPC)) was 186 % of control and 189 % of control. The T/C (dose: 100.0 mg/kg/injection, schedule: Q01DX009 (ip), vehicle: Klucel (hydroxypropylcellulose) (HPC)) was 93 % of control.
With `CCOc1ccc(-c2nn(C(=O)c3ccccc3)c(-c3ccccc3)c2N=Nc2ccc(S(=O)(=O)Nc3nnc(C)s3)cc2)cc1` the T/C (dose: 100.0 mg/kg/injection, schedule: Q04DX002 (ip), vehicle: saline with Tween-80) was 93 % of control, the T/C (dose: 200.0 mg/kg/injection, schedule: Q04DX002 (ip), vehicle: saline with Tween-80) was 89 % of control and the T/C (dose: 400.0 mg/kg/injection, schedule: Q04DX002 (ip), vehicle: saline with Tween-80) was 93 % of control.
With `CCN(CC)CC(C)Nc1ccc([N+](=O)[O-])c2sc3ccccc3c(=O)c12` (stereo unspecified) the T/C (dose: 6.25 mg/kg/injection, schedule: Q01DX009 (ip), vehicle: saline) was 113 % of control, the T/C (dose: 12.5 mg/kg/injection, schedule: Q04DX003 (ip), vehicle: saline with Tween-80) was 115 % of control and the T/C (dose: 25.0 mg/kg/injection, schedule: Q04DX003 (ip), vehicle: saline with Tween-80) was 120 % of control. For the same molecule, the T/C [6] was 172 % of control, the T/C (dose: 50.0 mg/kg/injection, schedule: Q01DX009 (ip), vehicle: saline) was 186 % of control and the T/C (dose: 132.0 mg/kg/injection, schedule: Q04DX003 (ip), vehicle: saline with Tween-80) was 163 % of control. For the same molecule, the T/C (dose: 200.0 mg/kg/injection, schedule: Q04DX003 (ip), vehicle: saline with Tween-80) was 154 % of control.
With `Cc1cccc(NC(=S)/N=C(\SCc2ccccc2)N(C)c2ccccc2)c1` the T/C [7] was 90 % of control and the T/C [8] was 93 % of control.
For `CC1=CC(=NN=c2cc(C)n([O-])c(C)c2)C=C(C)[N+]1=O`, the T/C (dose: 25.0 mg/kg/injection, schedule: Q01DX009 (ip), vehicle: saline) was 118 % of control.
`COc1ccc(CSc2nn(CCC#N)c(=O)[nH]c2=O)cc1` was tested, and the T/C [7] was 95 % of control, the T/C [8] was 97 % of control and the T/C (dose: 200.0 mg/kg/injection, schedule: Q01DX005 (ip), vehicle: saline with Tween-80) was 94 % of control.
In the case of `Cc1nc(-c2ccccc2-n2cccc2)no1`, the T/C [6] is reported as 104 % of control and the T/C (dose: 100.0 mg/kg/injection, schedule: Q01DX009 (ip), vehicle: saline with Tween-80) is reported as 102 % of control.
`CC(C)(CO)NC(=O)c1ccc(C(C)(C)C)cc1Br` was tested, and the T/C [1] was 99 % of control, the T/C [2] was 99 % of control and the T/C [9] was 100 % of control.
With `C/C(CC1C(CCO)C1(C)C)=N\NC(N)=O` (stereo unspecified) the T/C [3] was 98 % of control, the T/C [4] was 100 % of control and the T/C [5] was 106 % of control.
`CC(C)(C)NC(=O)c1ccc2c(n1)C(=O)N(C(C)(C)C)C2=S` was tested, and the T/C [1] was 91 % of control, the T/C [2] was 94 % of control and the T/C [9] was 100 % of control.

Source: PubChem BioAssay AID330 (DTP/NCI, 2004)
